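Assay format: 96-well plates, 48-hour exposure. GI50 = concentration required for 50% inhibition of growth. TGI is the concentration that stops growth completely.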
Experiments:
Experiment in all cases: inhibition of tumour cell growth, NCI panel, 48 h; in the data active = GI50 below about 0.43 µM; inactive = the rest
[1] = system: 786-0 renal
[2] = system: A498 renal
[3] = system: A549 NSCLC
[4] = system: ACHN renal
[5] = system: BT-549 breast
[6] = system: CAKI-1 renal
[7] = system: CCRF-CEM leukemia
[8] = system: COLO 205 colon
[9] = system: DU-145 prostate
[10] = system: EKVX NSCLC
[11] = system: HCC-2998 colon
[12] = system: HCT-116 colon
[13] = system: HCT-15 colon
[14] = system: HL-60(TB) leukemia
[15] = system: HOP-62 NSCLC
[16] = system: HOP-92 NSCLC
[17] = system: HS 578T breast
[18] = system: HT29 colon
[19] = system: IGROV1 ovarian
[20] = system: KM12 colon
[21] = system: LOX IMVI melanoma
[22] = system: M14 melanoma
[23] = system: MALME-3M melanoma
[24] = system: MCF7 breast
[25] = system: MDA-MB-231 breast
[26] = system: MOLT-4 leukemia
[27] = system: NCI-H226 lung
[28] = system: NCI-H23 lung
[29] = system: NCI-H460 lung
[30] = system: NCI-H522 lung
[31] = system: NCI/ADR-RES ovarian
[32] = system: OVCAR-3 ovarian
[33] = system: OVCAR-4 ovarian
[34] = system: OVCAR-5 ovarian
[35] = system: OVCAR-8 ovarian
[36] = system: PC-3 prostate
[37] = system: RPMI-8226 leukemia
[38] = system: RXF 393 renal
[39] = system: SF-268 CNS
[40] = system: SF-295 CNS
[41] = system: SF-539 CNS
[42] = system: SK-MEL-2 melanoma
[43] = system: SK-MEL-28 melanoma
[44] = system: SK-MEL-5 melanoma
[45] = system: SK-OV-3 ovarian
[46] = system: SN12C renal
[47] = system: SNB-19 CNS
[48] = system: SNB-75 CNS
[49] = system: SR leukemia
[50] = system: SW-620 colon
[51] = system: T-47D breast
[52] = system: TK-10 renal
[53] = system: U251 CNS
[54] = system: UACC-257 melanoma
[55] = system: UACC-62 melanoma
[56] = system: UO-31 renal

O=CNc1ccc2c(c1)Cc1cc([N+](=O)[O-])ccc1-2
> 53.1 µM: TGI [26]
inactive: GI50 [1] 5.32 µM | GI50 [2] 2.02 µM | GI50 [3] 5.75 µM | GI50 [4] 6.52 µM | GI50 [5] 2.93 µM | GI50 [6] 3.29 µM | GI50 [7] 1.31 µM | GI50 [8] 2.87 µM | GI50 [9] 2.83 µM | GI50 [10] 0.657 µM | GI50 [11] 1.3 µM | GI50 [12] 1.38 µM | GI50 [13] 2.86 µM | GI50 [14] 3.21 µM | GI50 [15] 8.71 µM | GI50 [16] 6.97 µM | GI50 [17] 1.23 µM | GI50 [18] 4.5 µM | GI50 [19] 3.95 µM | GI50 [20] 0.715 µM | GI50 [21] 2.62 µM | GI50 [23] 5.97 µM | GI50 [24] 0.561 µM | GI50 [25] 4.11 µM | GI50 [26] 2.78 µM | GI50 [27] 27.7 µM | GI50 [28] 4.61 µM | GI50 [29] 2.78 µM | GI50 [30] 1.85 µM | GI50 [31] 2.77 µM | GI50 [32] 1.56 µM | GI50 [33] > 65.5 µM | GI50 [34] 4.2 µM | GI50 [35] 4.99 µM | GI50 [36] 4.87 µM | GI50 [37] > 100 µM | GI50 [38] 2.33 µM | GI50 [39] 5.02 µM | GI50 [40] 0.981 µM | GI50 [41] 4.14 µM | GI50 [42] 3.58 µM | GI50 [43] > 22.3 µM | GI50 [44] 1.53 µM | GI50 [45] 4.39 µM | GI50 [46] > 26.2 µM | GI50 [47] 5.63 µM | GI50 [48] 3.02 µM | GI50 [49] 2.17 µM | GI50 [50] 2.05 µM | GI50 [51] > 100 µM | GI50 [52] 10.2 µM | GI50 [53] 2.97 µM | GI50 [54] 5.39 µM | GI50 [55] 4.3 µM | GI50 [56] 3.38 µM
7.56 µM: TGI [30]
> 60.3 µM: TGI [29]
5.16 µM: TGI [17]
98.5 µM: TGI [21]
> 100 µM: TGI [1] | TGI [4] | TGI [5] | TGI [6] | TGI [7] | TGI [8] | TGI [9] | TGI [10] | TGI [11] | TGI [12] | TGI [13] | TGI [14] | TGI [15] | TGI [16] | TGI [18] | TGI [19] | TGI [20] | TGI [22] | TGI [23] | TGI [24] | TGI [25] | TGI [27] | TGI [28] | TGI [31] | TGI [32] | TGI [33] | TGI [34] | TGI [35] | TGI [36] | TGI [37] | TGI [38] | TGI [39] | TGI [40] | TGI [41] | TGI [42] | TGI [43] | TGI [44] | TGI [46] | TGI [47] | TGI [49] | TGI [50] | TGI [51] | TGI [52] | TGI [53] | TGI [54] | TGI [55] | TGI [56]
> 77.4 µM: TGI [3]
> 58.1 µM: TGI [2]
active: GI50 [22] 0.291 µM
27.4 µM: TGI [45]
> 59.5 µM: TGI [48]

Reference: PubChem BioAssay (NCI)
